From the Kinase Knowledgebase extract (Sharma et al. 2016) come the findings set out here.

Where only a bound is given, the exact number is not on record here.

The target of one assay is CDK2 (human) (UniProt P24941). The assay can be described thus: Enzyme Assay.
Conditions: not given
A word on the IC50: it is the midpoint of a concentration-inhibition curve. In the case of `CCN(CC)CCCNC(=O)c1c(C)[nH]c(/C=C2\C(=O)Nc3ccc(Br)cc32)c1-c1ccccc1`, the IC50 was over 20 µM.

The next assay deals with EGFR (human) (UniProt P00533).
Chain of EGFR (human) (P00533 whole entry, looked up): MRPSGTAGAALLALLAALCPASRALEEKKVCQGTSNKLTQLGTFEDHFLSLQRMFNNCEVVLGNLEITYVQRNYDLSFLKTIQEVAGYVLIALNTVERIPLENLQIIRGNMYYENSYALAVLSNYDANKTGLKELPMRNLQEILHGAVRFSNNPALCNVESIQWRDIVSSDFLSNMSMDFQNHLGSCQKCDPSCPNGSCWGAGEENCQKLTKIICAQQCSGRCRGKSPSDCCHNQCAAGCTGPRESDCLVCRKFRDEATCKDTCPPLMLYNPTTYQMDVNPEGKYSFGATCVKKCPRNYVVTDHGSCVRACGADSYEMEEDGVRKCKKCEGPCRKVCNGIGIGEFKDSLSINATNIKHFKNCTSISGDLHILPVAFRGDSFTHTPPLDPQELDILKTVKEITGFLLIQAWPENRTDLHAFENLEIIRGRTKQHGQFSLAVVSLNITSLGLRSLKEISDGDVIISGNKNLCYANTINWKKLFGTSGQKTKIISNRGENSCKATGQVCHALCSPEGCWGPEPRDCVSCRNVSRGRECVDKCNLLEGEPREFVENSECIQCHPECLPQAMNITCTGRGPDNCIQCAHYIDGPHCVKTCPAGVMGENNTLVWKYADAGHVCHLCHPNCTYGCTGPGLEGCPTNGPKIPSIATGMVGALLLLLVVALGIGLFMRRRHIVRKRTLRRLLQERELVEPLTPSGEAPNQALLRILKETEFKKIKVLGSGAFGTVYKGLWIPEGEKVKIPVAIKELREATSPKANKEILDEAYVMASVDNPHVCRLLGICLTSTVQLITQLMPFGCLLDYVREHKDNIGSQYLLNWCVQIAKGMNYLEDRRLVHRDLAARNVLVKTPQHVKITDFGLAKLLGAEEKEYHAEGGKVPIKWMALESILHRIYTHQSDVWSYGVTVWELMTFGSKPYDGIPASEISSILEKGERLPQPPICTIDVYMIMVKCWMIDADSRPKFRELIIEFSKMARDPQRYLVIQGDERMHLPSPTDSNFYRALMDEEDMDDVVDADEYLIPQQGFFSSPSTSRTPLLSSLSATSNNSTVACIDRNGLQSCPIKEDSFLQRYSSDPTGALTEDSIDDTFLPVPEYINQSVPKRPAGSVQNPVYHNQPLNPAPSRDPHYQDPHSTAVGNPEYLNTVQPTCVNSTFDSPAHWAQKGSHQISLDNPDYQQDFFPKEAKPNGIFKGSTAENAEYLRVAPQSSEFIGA
Test: not given
Conditions: not given
`CCN(CC)CCCNC(=O)c1c(C)[nH]c(/C=C2\C(=O)Nc3cccc(C(=O)Nc4ccc(OC)c(Cl)c4)c32)c1C` yielded an IC50 of over 100 µM.
With `CNS(=O)(=O)c1ccc2c(c1)/C(=C/c1[nH]cc(C(=O)NCC(=O)O)c1C)C(=O)N2`, the IC50 is over 100 µM.
The same measure, in the same setting: for `Cc1[nH]c(/C=C2\C(=O)Nc3ccc(Cl)cc32)c(C)c1C(=O)NCCN(C)C` the value was over 100 µM; for `Cc1[nH]c(/C=C2\C(=O)Nc3cc(-c4ccccc4)ccc32)c(C)c1C(=O)NCCN(C)C`, over 100 µM; for `CCN(CC)CCNC(=O)c1c(C)[nH]c(/C=C2\C(=O)Nc3ccc(S(=O)(=O)N(C)C)cc32)c1C`, over 100 µM.
As for `Cc1c(C(=O)NCCCN2CCOCC2)[nH]c(/C=C2\C(=O)Nc3ccc(Br)cc32)c1C(=O)c1ccccc1`, the IC50 was over 100 µM.
The same measure, in the same setting: as for `CCN(CC)CCCNC(=O)c1c(C)[nH]c(/C=C2\C(=O)Nc3cc(-c4ccccc4)ccc32)c1C`, the figure is over 100 µM; as for `CCN(CC)CCCNC(=O)c1[nH]c(/C=C2\C(=O)Nc3ccc(OC)cc32)cc1C`, over 100 µM.
As to `CCN(CC)CCCNC(=O)c1[nH]c(/C=C2\C(=O)Nc3cc(OC)ccc32)cc1C`, the IC50 is over 100 µM.
Same read-out and setting: for `COc1ccccc1-c1ccc2c(c1)NC(=O)/C2=C\c1[nH]c(C)c(C(=O)NCCN2CCCC2)c1-c1ccccc1` the value was over 100 µM; for `CCN(CC)CCNC(=O)c1c(C(C)C)[nH]c(/C=C2\C(=O)Nc3ccc(Br)cc32)c1C(C)C`, over 100 µM.
Turning to `CCN(CC)CCNC(=O)c1c(C)[nH]c(/C=C2\C(=O)Nc3cc(-c4cc(Cl)cc(Cl)c4)ccc32)c1C`, the IC50 is over 100 µM.
Still for that read-out and setting: for `CNS(=O)(=O)c1ccc2c(c1)/C(=C/c1[nH]cc(C(=O)O)c1C)C(=O)N2` the value was over 100 µM.
The same measure, in the same setting: as for `COc1ccccc1-c1ccc2c(c1)NC(=O)/C2=C\c1[nH]c(C)c(C(=O)NCCN(C)C)c1-c1ccccc1`, the figure is over 100 µM; as for `Cc1[nH]c(/C=C2\C(=O)Nc3ccc(S(=O)(=O)N(C)C)cc32)c(C)c1C(=O)NCCN1CCCC1`, over 100 µM; as for `CCOC(=O)CNC(=O)c1c[nH]c(/C=C2\C(=O)Nc3ccc(S(=O)(=O)NC)c(C)c32)c1C`, over 100 µM.
`CCOC(=O)CNC(=O)c1c[nH]c(/C=C2\C(=O)Nc3ccc(S(=O)(=O)NC)cc32)c1C` displayed an IC50 of over 100 µM.
Same read-out and setting: as for `Cc1[nH]c(/C=C2\C(=O)Nc3ccc(-c4ccccc4)cc32)c(C)c1C(=O)NCCCn1ccnc1`, the figure is over 100 µM.

The target in another assay is EGFR (murine) (UniProt P00533).
Chain of EGFR (murine) (P00533 whole entry, looked up): as above
Test: not given
The following applies: nih3t3/c7.
Compound `Cc1[nH]c(/C=C2\C(=O)Nc3ccc(Br)cc32)c(C)c1C(=O)NCCN1CCCC1` came in with an IC50 of over 100 µM.
On the same count and under the same terms, for `CCN(CC)CCNC(=O)c1ccc(/C=C2\C(=O)Nc3cc(-c4ccccc4)ccc32)[nH]1` the value was over 100 µM; for `CCOC(=O)c1c(C)[nH]c(/C=C2\C(=O)Nc3ccc(Br)cc32)c1-c1ccccc1`, over 100 µM; for `Cc1[nH]c(/C=C2\C(=O)Nc3ccc(Br)cc32)c(C)c1C(=O)NCCCn1ccnc1`, over 100 µM.
With `Cc1[nH]c(/C=C2\C(=O)Nc3cc(-c4ccccc4)ccc32)c(C)c1C(=O)NCCN1CCCC1`, the IC50 is over 100 µM.
`CCN(CC)CCNC(=O)c1c(C)[nH]c(/C=C2\C(=O)Nc3cc(-c4cccnc4)ccc32)c1C` registered an IC50 of over 100 µM.
`Cc1cc(C(=O)O)[nH]c1/C=C1\C(=O)N(C)c2ccccc21`: the IC50 was over 100 µM.
With `CCN(CC)CCNC(=O)c1c(C)[nH]c(/C=C2\C(=O)Nc3cc(-c4ccccc4)ccc32)c1C`, the IC50 was over 100 µM.
Still for that read-out and setting: as for `CCOC(=O)c1cc(C)c(/C=C2\C(=O)Nc3ccc(Cl)cc32)[nH]1`, the figure is over 100 µM.
As for `Cc1[nH]c(/C=C2\C(=O)Nc3cc(-c4ccccc4)ccc32)c(C)c1C(=O)NCCCn1ccnc1`, the IC50 is over 100 µM.
For the compound `CCN(CC)CCNC(=O)c1c(C)[nH]c(/C=C2\C(=O)Nc3cc(-c4cc(Cl)cc(Cl)c4)ccc32)c1C`, the IC50 is over 100 µM.
Same read-out and setting: as for `CCN(CC)CCN(C)C(=O)c1ccc(/C=C2\C(=O)Nc3cc(-c4ccccc4)ccc32)[nH]1`, the figure is over 100 µM; as for `Cc1[nH]c(/C=C2\C(=O)Nc3cc(-c4cccnc4)ccc32)c(C)c1C(=O)NCCN1CCCC1`, over 100 µM; as for `Cc1cc(C(=O)O)[nH]c1/C=C1\C(=O)Nc2ccccc21`, over 100 µM.
Consider `Cc1cc(C(=O)O)[nH]c1/C=C1\C(=O)Nc2ccc(Cl)cc21`, for which the IC50 is over 100 µM.
Same read-out and setting: as for `COC(=O)c1cc(C)c(/C=C2\C(=O)Nc3ccccc32)[nH]1`, the figure is over 100 µM.
For `Cc1[nH]c(/C=C2\C(=O)Nc3ccc(-c4ccccc4)cc32)c(C)c1C(=O)NCCCn1ccnc1`, the IC50 was over 100 µM.
